From patent publication US6057317A, “Heterocyclic compounds” (Adir et Compagnie, priority 1997, dated 2000)

Columns and labels:
[1] = target: imidazoline I2 receptor; assay: Measurement of in vitro affinity for the I2 receptor (radioligand displacement); assay type: binding; conditions: [3H] idazoxan + 10 μM noradrenaline; renal cortex of rabbit
Description: (§1) The profile of binding to the imidazoline I1 and I2 receptors was determined for the compounds of the invention by evaluating the ability of those compounds to displace specific radioligands of the receptors in question.
(§2) The following Table indicates the radioligand used to label each receptor, the compound and the concentration selected to determine the non-specific fraction, and the tissue selected. […]

[2] = target: imidazoline I1 receptor; assay: Measurement of in vitro affinity for the I1 receptor (radioligand displacement); assay type: binding; conditions: [3H] clonidine + 10 μM noradrenaline; bovine lateral reticulated nucleus
Description: as §1, §2
10 μM reticulated nucleus

[3] = test system: SHR rats; assay: Antihypertensive activity in conscious rats; assay type: in vivo, rat; conditions: oral, dose of 15 mg/kg
Description: The tests were carried out in SHR rats. The animals are anaesthetised. A heparinised catheter is introduced into the left carotid artery and connected to a recording apparatus so as to measure the systolic and diastolic arterial pressure and the heart rate. The animals are returned to their cage and the tests are carried out after 24 hours.
The parameters to be measured stabilise during a period of at least 30 minutes, during which a maximum of 1.5 ml of saline solution is injected in such a manner as to optimise the measurements. Only animals whose arterial pressure is higher than or equal to 170 mmHg are included in the study.
The test compounds of the carrier are administered orally and the measurements are carried out before the treatment and every ten minutes after treatment, for 4 hours, and then 8 and 24 hours after treatment.

Compound: Cc1ccc2c(c1)N(C)CC(C1=NCCN1)O2 (stereo not drawn) [Example 2, 2-(4,5-Dihydro-1H-2-imidazolyl)-4,6-dimethyl-3,4-dihydro-2H-1,4-benzoxazineoxalate]
- Ki [1]: 2 nM
- Ki [2]: 22 nM
- effect on arterial pressure [3]: allowed the arterial pressure to be normalized
